How the values were obtained:
[1] = molecular target: Ba/F3 De119/T790M/C797S EGFR triple mutant cell line (Homo sapiens, UniProt P00533, T790M/C797S, cells depend on it, form not given); test: Cell proliferation inhibition experiment (CellTiter-Glo), Ba/F3 De119/T790M/C797S; assay type: cell-based; conditions: Ba/F3 Del19/T790M/C797S EGFR triple mutant cells, 72 hours, Cell Titer-Glo; read-out: Ba/F3 (Del19/T790M/C797S) IC50
[2] = molecular target: Ba/F3 L858R/T790M/C797S EGFR triple mutant cell line (Homo sapiens, UniProt P00533, T790M/C797S/L858R, cells depend on it); test: Cell proliferation inhibition experiment (CellTiter-Glo), Ba/F3 L858R/T790M/C797S; assay type: cell-based; conditions: 72 hours, Cell Titer-Glo, read-out: Ba/F3 (L858R/T790M/C797S) IC50
Ba/F3 L858R/T790M/C797S EGFR triple mutant cell line, sequence (P00533 whole entry T790M/C797S/L858R): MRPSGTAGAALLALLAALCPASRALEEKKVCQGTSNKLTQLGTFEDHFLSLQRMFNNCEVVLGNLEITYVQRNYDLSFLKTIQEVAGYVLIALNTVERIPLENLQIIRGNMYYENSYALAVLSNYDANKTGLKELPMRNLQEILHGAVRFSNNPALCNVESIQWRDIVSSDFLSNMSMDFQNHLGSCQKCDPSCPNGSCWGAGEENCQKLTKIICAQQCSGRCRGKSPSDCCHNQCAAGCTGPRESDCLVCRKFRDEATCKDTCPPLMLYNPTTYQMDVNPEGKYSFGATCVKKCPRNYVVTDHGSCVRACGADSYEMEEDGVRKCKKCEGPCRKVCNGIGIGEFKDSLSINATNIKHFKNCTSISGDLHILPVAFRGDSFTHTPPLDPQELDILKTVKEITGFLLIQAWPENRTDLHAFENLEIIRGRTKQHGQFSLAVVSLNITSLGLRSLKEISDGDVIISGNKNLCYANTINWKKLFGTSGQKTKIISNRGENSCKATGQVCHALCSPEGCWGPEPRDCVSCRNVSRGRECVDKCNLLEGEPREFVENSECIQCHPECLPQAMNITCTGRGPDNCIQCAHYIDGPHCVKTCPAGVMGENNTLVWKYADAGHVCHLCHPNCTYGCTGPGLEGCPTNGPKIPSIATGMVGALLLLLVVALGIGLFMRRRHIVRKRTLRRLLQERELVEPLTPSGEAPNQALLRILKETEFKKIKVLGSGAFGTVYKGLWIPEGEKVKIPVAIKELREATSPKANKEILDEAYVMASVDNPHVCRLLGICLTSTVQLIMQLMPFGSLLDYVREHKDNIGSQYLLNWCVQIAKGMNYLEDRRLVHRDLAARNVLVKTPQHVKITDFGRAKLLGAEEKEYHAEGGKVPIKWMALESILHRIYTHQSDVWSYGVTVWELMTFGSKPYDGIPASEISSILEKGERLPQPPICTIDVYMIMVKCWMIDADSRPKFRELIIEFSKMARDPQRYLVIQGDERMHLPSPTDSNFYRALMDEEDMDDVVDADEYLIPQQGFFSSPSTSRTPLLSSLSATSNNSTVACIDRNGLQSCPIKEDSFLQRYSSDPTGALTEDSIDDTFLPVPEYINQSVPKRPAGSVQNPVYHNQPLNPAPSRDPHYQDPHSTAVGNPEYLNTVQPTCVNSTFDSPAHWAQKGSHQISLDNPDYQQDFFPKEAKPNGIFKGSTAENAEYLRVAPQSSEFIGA

wild-type EGFR = molecular target: T1, wild-type EGFR (Homo sapiens, UniProt P00533); test: Enzymology experiment in vitro (HTRF/FRET kinase activity), wild-type EGFR; assay type: biochemical; conditions: HTRF KinEASE-TK, read-out: EGFR (WT) IC50
T1 construct: purchased Signalchem
T1 sequence (P00533 25-1210): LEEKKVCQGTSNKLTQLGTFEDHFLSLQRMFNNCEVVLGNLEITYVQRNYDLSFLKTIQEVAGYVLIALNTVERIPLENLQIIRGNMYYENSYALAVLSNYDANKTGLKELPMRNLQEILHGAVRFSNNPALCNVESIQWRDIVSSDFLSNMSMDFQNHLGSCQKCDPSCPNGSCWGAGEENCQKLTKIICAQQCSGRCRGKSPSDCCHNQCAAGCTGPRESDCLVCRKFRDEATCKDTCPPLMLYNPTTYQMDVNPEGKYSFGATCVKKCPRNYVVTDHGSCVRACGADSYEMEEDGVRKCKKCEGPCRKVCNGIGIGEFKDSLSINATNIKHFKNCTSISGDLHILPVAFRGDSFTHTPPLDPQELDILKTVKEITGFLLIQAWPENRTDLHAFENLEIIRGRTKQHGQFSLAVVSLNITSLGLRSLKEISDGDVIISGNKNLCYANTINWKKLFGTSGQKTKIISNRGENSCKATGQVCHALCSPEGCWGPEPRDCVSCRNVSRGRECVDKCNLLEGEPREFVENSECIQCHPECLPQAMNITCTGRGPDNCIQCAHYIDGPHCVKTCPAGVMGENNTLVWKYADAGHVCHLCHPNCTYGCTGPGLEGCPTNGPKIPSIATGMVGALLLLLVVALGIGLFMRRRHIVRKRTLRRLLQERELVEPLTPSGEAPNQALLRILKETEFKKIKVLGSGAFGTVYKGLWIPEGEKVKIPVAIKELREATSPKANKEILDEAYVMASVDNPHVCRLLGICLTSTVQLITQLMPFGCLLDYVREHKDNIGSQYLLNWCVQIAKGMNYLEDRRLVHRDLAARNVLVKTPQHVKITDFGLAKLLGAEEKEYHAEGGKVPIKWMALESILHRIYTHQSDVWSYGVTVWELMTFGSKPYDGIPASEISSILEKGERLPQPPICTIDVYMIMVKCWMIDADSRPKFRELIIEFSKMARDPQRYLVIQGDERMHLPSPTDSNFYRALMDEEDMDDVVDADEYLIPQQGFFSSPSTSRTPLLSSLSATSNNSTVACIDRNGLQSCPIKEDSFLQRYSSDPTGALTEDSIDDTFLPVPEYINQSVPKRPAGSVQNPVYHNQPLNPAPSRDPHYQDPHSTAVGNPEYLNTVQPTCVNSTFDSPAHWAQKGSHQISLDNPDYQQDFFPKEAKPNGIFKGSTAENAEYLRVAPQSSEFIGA
Summary of the method: (§1)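 Kinase reaction run 40 min at room temperature with peptide and ATP after a 10 min compound–enzyme preincubation. Phosphorylation read as HTRF signal after 1 h with Eu³⁺ antibody, XL665-streptavidin and EDTA (Cisbio KinEASE-TK).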

[3] = tested on: EGFR wild-type cell line A431; test: Cell proliferation inhibition experiment (CellTiter-Glo), A431; assay type: cell-based; conditions: Homo sapiens, A-431, 72 h, A431 cells, Cell Titer-Glo, read-out: A431 EGFR WT IC50
Summary of the method: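 Luminescent CellTiter-Glo readout, 30 min at room temperature, after 72 h compound exposure at 37° C., 5% CO2 with 0.1% DMSO final. EGFR wild-type A431 cells were seeded at 800 per well and grown 24 h before dosing. IC50 derived from the dose-response.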

[4] = molecular target: T2, L858R/T790M/C797S triple mutant EGFR (Homo sapiens, UniProt P00533, C797S/L858R/T790M); test: Enzymology experiment in vitro (HTRF/FRET kinase activity), L858R/T790M/C797S triple mutant EGFR; assay type: biochemical; conditions: HTRF KinEASE-TK, read-out: EGFR (L858R/T790M/C797S) IC50
T2 construct: purchased Signalchem
T2 sequence (P00533 25-1210 T790M/C797S/L858R): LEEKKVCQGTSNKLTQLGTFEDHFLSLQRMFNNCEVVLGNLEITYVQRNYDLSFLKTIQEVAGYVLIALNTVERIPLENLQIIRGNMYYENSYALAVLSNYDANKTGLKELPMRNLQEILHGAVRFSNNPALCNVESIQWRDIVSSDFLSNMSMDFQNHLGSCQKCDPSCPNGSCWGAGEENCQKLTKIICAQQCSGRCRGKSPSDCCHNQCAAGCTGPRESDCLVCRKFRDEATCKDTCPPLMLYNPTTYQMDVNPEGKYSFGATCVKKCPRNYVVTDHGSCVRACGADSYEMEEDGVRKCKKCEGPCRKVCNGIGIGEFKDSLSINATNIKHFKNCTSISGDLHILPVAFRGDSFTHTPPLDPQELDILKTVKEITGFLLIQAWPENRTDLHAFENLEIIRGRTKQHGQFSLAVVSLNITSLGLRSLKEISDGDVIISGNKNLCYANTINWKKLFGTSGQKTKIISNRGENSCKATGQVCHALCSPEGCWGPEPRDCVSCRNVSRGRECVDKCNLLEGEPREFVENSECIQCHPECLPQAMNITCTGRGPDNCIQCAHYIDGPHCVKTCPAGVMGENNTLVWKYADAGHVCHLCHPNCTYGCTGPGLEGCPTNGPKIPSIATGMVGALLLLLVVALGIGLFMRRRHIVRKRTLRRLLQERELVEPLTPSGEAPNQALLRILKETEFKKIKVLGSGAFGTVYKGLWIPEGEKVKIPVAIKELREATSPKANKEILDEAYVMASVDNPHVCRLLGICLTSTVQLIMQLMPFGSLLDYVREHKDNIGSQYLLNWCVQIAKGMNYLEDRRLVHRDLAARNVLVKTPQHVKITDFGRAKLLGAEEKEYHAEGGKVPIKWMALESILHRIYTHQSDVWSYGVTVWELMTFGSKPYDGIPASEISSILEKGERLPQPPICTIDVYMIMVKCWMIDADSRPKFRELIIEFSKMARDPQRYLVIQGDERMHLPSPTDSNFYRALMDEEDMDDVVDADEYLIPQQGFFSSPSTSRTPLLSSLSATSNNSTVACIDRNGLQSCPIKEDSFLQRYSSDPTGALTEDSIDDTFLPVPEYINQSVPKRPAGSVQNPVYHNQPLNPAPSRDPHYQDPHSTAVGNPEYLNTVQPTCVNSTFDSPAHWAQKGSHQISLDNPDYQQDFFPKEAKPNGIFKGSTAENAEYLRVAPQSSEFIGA
Summary of the method: as §1

Ba/F3 De119/T790M/C797S EGFR triple mutant cell line, sequence (P00533 with tags, fused parts or gaps DEL746-750/T790M/C797S, form open): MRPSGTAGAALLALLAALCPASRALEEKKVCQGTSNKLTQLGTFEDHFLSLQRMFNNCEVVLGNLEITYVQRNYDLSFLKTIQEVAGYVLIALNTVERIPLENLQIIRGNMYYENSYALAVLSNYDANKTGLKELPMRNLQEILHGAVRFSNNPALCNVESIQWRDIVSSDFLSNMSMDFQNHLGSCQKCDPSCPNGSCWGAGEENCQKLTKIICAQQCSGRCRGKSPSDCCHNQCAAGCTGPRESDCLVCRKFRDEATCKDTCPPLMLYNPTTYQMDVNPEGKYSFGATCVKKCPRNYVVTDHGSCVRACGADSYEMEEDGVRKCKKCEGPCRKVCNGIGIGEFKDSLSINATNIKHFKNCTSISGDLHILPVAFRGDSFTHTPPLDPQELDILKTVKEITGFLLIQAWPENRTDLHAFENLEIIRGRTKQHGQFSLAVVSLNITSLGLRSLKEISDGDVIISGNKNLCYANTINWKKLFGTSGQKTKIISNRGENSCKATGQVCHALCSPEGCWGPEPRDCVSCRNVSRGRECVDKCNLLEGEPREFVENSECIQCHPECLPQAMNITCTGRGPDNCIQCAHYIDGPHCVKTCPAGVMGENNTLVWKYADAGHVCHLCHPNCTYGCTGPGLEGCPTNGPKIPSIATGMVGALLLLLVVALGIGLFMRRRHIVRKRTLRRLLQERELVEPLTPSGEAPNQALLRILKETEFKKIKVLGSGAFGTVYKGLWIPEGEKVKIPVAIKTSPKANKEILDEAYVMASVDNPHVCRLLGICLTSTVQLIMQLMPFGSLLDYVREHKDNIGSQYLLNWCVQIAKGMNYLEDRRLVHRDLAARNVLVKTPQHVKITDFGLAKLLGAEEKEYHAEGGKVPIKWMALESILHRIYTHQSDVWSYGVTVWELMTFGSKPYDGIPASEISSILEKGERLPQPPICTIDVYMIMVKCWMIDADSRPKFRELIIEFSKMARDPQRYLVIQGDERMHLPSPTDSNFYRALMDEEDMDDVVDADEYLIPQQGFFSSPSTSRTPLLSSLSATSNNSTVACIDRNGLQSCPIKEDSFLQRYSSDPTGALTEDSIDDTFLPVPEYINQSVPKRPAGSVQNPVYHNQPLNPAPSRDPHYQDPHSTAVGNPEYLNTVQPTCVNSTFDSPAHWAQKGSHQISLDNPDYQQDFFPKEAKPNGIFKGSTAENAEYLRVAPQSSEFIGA

Row | Compound | GI50 [1] [nM] | GI50 [2] [nM] | IC50 (wild-type EGFR) [nM] | IC50 [3] [nM] | IC50 [4] [nM]
1 | COc1cc(N2CCN3CCC[C@@H]3C2)c(-c2cnn(C)c2)cc1Nc1ncc(Br)c(Nc2ccc3nccnc3c2P(C)(C)=O)n1 [compound 176] | 2.97 | 5.96 | 3.26 | 61.9 | 0.34
2 | COc1cc(N2CCN(S(=O)(=O)C3CC3)CC2)c(-c2cnn(C)c2)cc1Nc1ncc(Br)c(Nc2ccc3nccnc3c2P(C)(C)=O)n1 [compound 178] | 2.86 | 13 | 7.68 | 168 | 1.29
3 | COc1cc(N2CCC(N3CCC(OC)CC3)CC2)c(-c2cnn(C)c2)cc1Nc1ncc(Br)c(Nc2ccc3nccnc3c2P(C)(C)=O)n1 [compound 179] | 1.37 | 6.84 | 1.48 | 54.3 | 0.4
4 | COc1cc(N2CCC(N3CCC(F)CC3)CC2)c(-c2cnn(C)c2)cc1Nc1ncc(Br)c(Nc2ccc3nccnc3c2P(C)(C)=O)n1 [compound 180] | 4.13 | 6.53 | 1.4 | 64.8 | 0.36
5 | [2H]C([2H])([2H])OCCN1CCN(c2cc(OC)c(Nc3ncc(Br)c(Nc4ccc5nccnc5c4P(C)(C)=O)n3)cc2-c2cnn(C)c2)CC1 [compound 181] | 3.52 | 9.67 | 3.53 | 88.9 | 0.16
6 | COc1cc(N2CCOC(COC(C)C)C2)c(-c2cnn(C)c2)cc1Nc1ncc(Br)c(Nc2ccc3nccnc3c2P(C)(C)=O)n1 (stereo not drawn) [compound 182] | 1.71 | 4.43 | 8.49 | 101 | 0.4
7 | COc1cc(N2CCC3(CCN(C)CC3)CC2)c(-c2cnn(C)c2)cc1Nc1ncc(Br)c(Nc2ccccc2N(C)S(=O)(=O)C2CC2)n1 [compound 183, N-(2-((5-Bromo-2-((2-methoxy-5-(1-methyl-1H-pyrazol-4-yl)-4-)(9-methyl-3,9-diazaspiro[5.5]undecan-3-yl)phenyl)amino)pyrimidin-4-yl)amino)phenyl-N-methylcyclopropanesulfonamide] | 14.4 | 27 | 12.2 | 246 | 1.12
8 | COc1cc(N2CCN(C3(C)COC3)CC2)c(-c2cnn(C)c2)cc1Nc1ncc(Br)c(Nc2ccc3nccnc3c2P(C)(C)=O)n1 [compound 184] | 2.28 | 5.67 | 2.23 | 218 | 0.24
9 | COc1cc(N2CCC(N3CC[C@H](OC)[C@H](F)C3)CC2)c(-c2cnn(C)c2)cc1Nc1ncc(Br)c(Nc2ccc3nccnc3c2P(C)(C)=O)n1 [compound 185] | 1.77 | 4.02 | 2.42 | 127 | 0.36
10 | COc1cc(N2CCC(N3CCN(CC(F)F)CC3)CC2)c(-c2cnn(C)c2)cc1Nc1ncc(Br)c(Nc2ccc3nccnc3c2P(C)(C)=O)n1 [compound 186] | 1.39 | 3.47 | 1.19 | 62 | 0.37
11 | COc1cc(N2CC[C@H](OC)[C@H](F)C2)c(-c2cnn(C)c2)cc1Nc1ncc(Br)c(Nc2ccc3nccnc3c2P(C)(C)=O)n1 [compound 187] | 2.11 | 8.73 | 5.73 | 245 | 0.04
12 | COc1cc(N2CCC(C)(OC)CC2)c(-c2cnn(C)c2)cc1Nc1ncc(Br)c(Nc2ccc3nccnc3c2P(C)(C)=O)n1 [compound 188] | 0.61 | 0.87 | 5.62 | 56.6 | 0.43
13 | COc1cc(N2CCC(N3CCN(C)CC3)C(F)C2)c(-c2cnn(C)c2)cc1Nc1ncc(Br)c(Nc2ccc3nccnc3c2P(C)(C)=O)n1 (stereo not drawn) [compound 189] | 9.18 | 23.6 | 1.08 | 128 | 0.16
14 | COc1cc(N2CCC(N3CCN(C)CC3)CC2)c(-c2cnn(C)c2)cc1Nc1ncc(Br)c(Nc2ccccc2N(C)S(=O)(=O)C2CC2)n1 [compound 190] | 4.16 | 8.69 | 4.37 | 194 | 0.53
15 | COc1cc(N2CCN(CCN3CCOCC3)CC2)c(-c2cnn(C)c2)cc1Nc1ncc(Br)c(Nc2ccc3nccnc3c2P(C)(C)=O)n1 [compound 191] | 3.47 | 11.4 | 2.44 | 70 | 0.23
16 | COc1cc(N2CCC(N3CCN(C)C(C)C3)CC2)c(-c2cnn(C)c2)cc1Nc1ncc(Br)c(Nc2ccc3nccnc3c2P(C)(C)=O)n1 (stereo not drawn) [compound 193] | 4.48 | 9.83 | 0.99 | 59.9 | 0.27
17 | COc1cc(N2CCC3(CC2)CN(C)CCN3C)c(-c2cnn(C)c2)cc1Nc1ncc(Br)c(Nc2ccc3nccnc3c2P(C)(C)=O)n1 [compound 194] | 5.56 | 16.4 | 2.85 | 79.5 | 0.17
18 | COc1cc(N2CCC3(CC2)CN(C)CCO3)c(-c2cnn(C)c2)cc1Nc1ncc(Br)c(Nc2cc3c(cc2N(C)S(C)(=O)=O)CC3)n1 [compound 195] | 7.7 | 12.5 | 8.52 | 415 | 2.33
19 | COc1cc(N2CCC3(CCN(C)CC3)CC2)c(-c2cnn(C)c2)cc1Nc1ncc(Br)c(Nc2cc3c(cc2N(C)S(C)(=O)=O)CC3)n1 [compound 196] | 12.3 | 20.8 | 3.35 | 356 | 0.59
20 | COc1cc(N2CCC(N3CC(C)N(C)C(C)C3)CC2)c(-c2cnn(C)c2)cc1Nc1ncc(Br)c(Nc2ccc3nccnc3c2P(C)(C)=O)n1 (stereo not drawn) [compound 197] | 7.7 | 14.3 | 0.62 | 95.6 | 0.25
21 | COc1cc(N2CCC(OCCN(C)C)CC2)c(-c2cnn(C)c2)cc1Nc1ncc(Br)c(Nc2ccc3nccnc3c2P(C)(C)=O)n1 [compound 198] | 4.26 | 9.49 | 0.62 | 38 | 0.22

Other lines, results leading:

Row | GI50 [1] [nM] | GI50 [2] [nM] | IC50 (wild-type EGFR) [nM] | IC50 [3] [nM] | IC50 [4] [nM] | Compound
22 | 7.47 | 22 | 7.56 | 69.6 | 0.19 | CN1CCN(c2noc3c(Nc4ncc(Br)c(Nc5ccc6nccnc6c5P(C)(C)=O)n4)cc(-c4cnn(C)c4)cc23)CC1 [compound 200]
23 | 2.93 | 3.75 | 3.74 | 91.3 | 0.59 | COc1cc(N2CCC3(CC2)CN(C(C)C)CCO3)c(-c2cnn(C)c2)cc1Nc1ncc(Br)c(Nc2ccc3nccnc3c2P(C)(C)=O)n1 [compound 202]
24 | 10.6 | 20 | 21.2 | 351 | 0.47 | COc1cc(N2CCC3(CCOC3)C2)c(-c2cnn(C)c2)cc1Nc1ncc(Br)c(Nc2ccc3nccnc3c2P(C)(C)=O)n1 (stereo not drawn) [compound 203]
25 | 5.19 | 11.2 | 1.57 | 66.9 | 0.25 | COc1cc(N2CCC(N3CC(CF)C3)CC2)c(-c2cnn(C)c2)cc1Nc1ncc(Br)c(Nc2ccc3nccnc3c2P(C)(C)=O)n1 [compound 204]
26 | 3.2 | 8.9 | 3.08 | 116 | 0.35 | COc1cc(N2CCC3CCN(CCF)C3C2)c(-c2cnn(C)c2)cc1Nc1ncc(Br)c(Nc2ccc3nccnc3c2P(C)(C)=O)n1 (stereo not drawn) [compound 205, (6-((5-Bromo-2-((4-(1-(2-fluoroethyl)octahydro-6H-pyrrolo[2,3-c]pyridin-6-yl)-2-methoxy-5-(1-methyl-1H-pyrazol-4-yl)phenyl)amino)pyrimidin-4-yl)amino)quinoxalin-5-yl)dimethylphosphine oxide]
27 | 7.62 | 30.2 | 8.46 | 298 | 0.62 | COc1cc(N2CCC3CCN(CCOC(C)C)C3C2)c(-c2cnn(C)c2)cc1Nc1ncc(Br)c(Nc2ccc3nccnc3c2P(C)(C)=O)n1 (stereo not drawn) [compound 206]
28 | 9.45 | 14.6 | 5.79 | 348 | 0.57 | COc1cc(N2CCC3(CC2)COCCN3C)c(-c2cnn(C)c2)cc1Nc1ncc(Br)c(Nc2cc3c(cc2N(C)S(C)(=O)=O)CC3)n1 [compound 208]
29 | 7.18 | 12.6 | 9.74 | 171 | 0.73 | COc1cc(N2CCC(N3CCN(CCF)CC3)CC2)c(-c2cnn(C)c2)cc1Nc1ncc(Br)c(Nc2ccccc2N(C)S(=O)(=O)C2CC2)n1 [compound 209]
30 | 14.3 | 24.8 | 10.9 | 354 | 0.61 | COc1cc(N2CCC(N3CCN(C)CC3)C(F)C2)c(-c2cnn(C)c2)cc1Nc1ncc(Br)c(Nc2ccccc2N(C)S(=O)(=O)C2CC2)n1 (stereo not drawn) [compound 211]

Source: patent publication US20230219986A1, “NOVEL AMINOPYRIMIDINE EGFR INHIBITOR” (QILU PHARMACEUTICAL CO., LTD., priority 2020, published 2023)
